Key:
[1] = test system: human corneal fibroblasts (HCF); experiment: P3 HCF on plastic with or without immobilized HA or HC-HA/PTX3, with or without TGFβ1: mRNA, ELISA, Western blot, immunostaining; format: cell-based
Experimental: A total of 89 human corneas from individuals aged 18-76 years and maintained at 4° C. in Optisol (Chiron Vision, Irvine, Calif.) for less than 7 days after death were obtained from the Florida Lions Eye Bank (Miami, Fla.) and handled according to the declaration of Helsinki. HCF were isolated and cultured. Epithelial and endothelial cells were removed from corneas, the stroma was cut into cubes of approximately 1 mm^3, incubated in 2 mg/ml collagenase for 16 h at 37° C., and then placed in a culture medium consisting of Dulbecco's modified Eagle's medium (DMEM) supplemented with 10% fetal bovine serum containing […]. The culture medium was changed twice a week. The morphology of the cells was monitored by Nikon Eclipse TS 100 microscope (Melville, N.Y.). Cells cultured to passage 3 (P3) were used for all experiments.
Human corneal fibroblasts (P3) were seeded on plastics with or without immobilized HC-HA/PTX3 complex for 72 h in DMEM+10% FBS, then serum starved for 24 h and treated with or without TGFβ1 for 24 h before being harvested for mRNA quantitation or immunostaining. For determination of protein of TGFβ receptor or p75NTR, the cells were treated with or without TGF-β1 for 48 h before collection of protein samples because the protein expression lags behind mRNA expression. For TGF-β1 ELISA, the cells were treated with or without TGF-β1 for 24 h, and then cultured in the fresh medium for another 24 h. The supernatants were collected for TGFβ1 ELISA. For TGFβ2 and TGFβ3 ELISA, the cells were treated with or without TGFβ1 for 48 h. Certain HCF were seeded on glass in DMEM+10% FBS for 24 h, then in DMEM+ITS (insulin-transferrin-selenium) for 24 h, treated with/without PBS or hyaluronic acid (HA) or HC-HA/PTX3±TGFβ1 (10 ng/ml)±Marimastat (10 μM) or ±DAPT (10 μM) or ±both for 0, 5, 15, 30 and 45 minutes before being harvested for immunostaining of CD44-ICD, JNK1, Cyclin D1 and p75NTR and for 5 minutes before being harvested for Western blotting of cytoplasmic and nuclear CD44-ICD, active MT1-MMP, and active γ-secretase after compartmental separation of the cellular components.
Total RNAs were extracted using RNeasy Mini Kit and were reverse transcribed using High Capacity Reverse Transcription Kit (Applied Biosystems). cDNA obtained was amplified by real-time RT-PCR using specific primer-probe mixtures and DNA polymerase in 7000 Real-time PCR System (Thermo-Fisher Scientific, Carlsbad, Calif.). Real-time RT-PCR profile consisted of 10 minutes of initial activation at 95° C., followed by 40 cycles of 15 seconds denaturation at 95° C., and 1 min annealing and 1 min extension at 60° C. The genuine identity of each PCR product was confirmed by the size determination using 2% agarose gels followed by ethidium bromide staining together with PCR marker according to EC3 Imaging System (BioImaging System, Upland, Calif.).
The Quantikine Human ELISA Kits of TGFβs were used for determination of TGFβs following the manufacturer's instructions (R and D Systems, Minneapolis, Minn.).
HCF, induced human corneal endothelial cells (HCEC), and HCEC monolayer cultures were air-dried and fixed in 4% formaldehyde, pH 7.0, for 15 min at room temperature, rehydrated in PBS, incubated with 0.2% Triton X-100 for 15 min, and rinsed three times with PBS for 5 min each. After incubation with 2% BSA to block non-specific staining for 30 min, they were incubated with the desired first antibody (all at 1:50 dilution) for 16 h at 4° C. After three washes with PBS, they were incubated with corresponding Alexa-Fluor-conjugated secondary IgG (all 1:100 dilutions) for 60 min. The samples were then counterstained with Hoechst 33342 and analyzed with Zeiss LSM 700 confocal microscope (Thornhood, N.Y.). Corresponding mouse and rabbit sera were used as negative controls for primary monoclonal and polyclonal antibodies, respectively. […]

[2] = test system: human corneal myofibroblasts; experiment: Reversal of TGFβ1-induced human corneal myofibroblasts on immobilized HC-HA/PTX3; format: cell-based; settings: day 4 and day 7
Experimental: HCF were cultured in DMEM+10% FBS until 70% confluence. The cells were serum-starved for 1 day and treated with 10 ng/ml TGFβ1 for 3 days to induce myofibroblasts.
To reverse fibroblasts or myofibroblasts into keratocytes, fibroblasts or myofibroblasts were cultured on immobilized HC-HA/PTX3 in DMEM+10% FBS for 3 days using the samples from the cells on plastic and HA as the controls. Some of the cell cultures were extended to up to 7 days of culture to monitor the expression of α-SMA formation. […]
The samples of human corneal fibroblasts, myofibroblasts and corneal keratocytes were air-dried and fixed in 4% formaldehyde, pH 7.0, for 15 min at room temperature, rehydrated in PBS, incubated with 0.2% Triton X-100 for 15 min, and rinsed 3 times with PBS for 5 min each. […] The samples were then counterstained with Hoechst 33342 and analyzed in Zeiss LSM 700 confocal microscope (Thornhood, N.Y.). […]
Cell lysates were prepared in RIPA buffer and resolved on 4-15% (w/v) gradient acrylamide gels under denaturing and reducing conditions for Western blotting. […] Immunoreactive proteins were detected with Western Lighting Chemiluminescence (PerkinElmer, Waltham, Mass.).

hyaluronic acid [HA]
expression of NC markers (p75NTR, HNK1, Sox9, KLF4, Snail1, MSX1) ([1]; absence of TGFβ1): only upregulated expression of HNK1
keratocan mRNA and protein ([1]; absence of TGFβ1): upregulated mRNA but not protein of keratocan
TGFβ1 mRNA and protein level ([1]; after exogenous TGFβ1 (10 ng/ml)): upregulated
nuclear translocation of pSMAD2/3 and cytoplasmic expression of α-SMA ([1]; exogenous TGFβ1): caused nuclear translocation of pSMAD2/3 and positive cytoplasmic expression of α-SMA
cell shape / aggregation of P3 HCF ([1]; immobilized substrate, DMEM+10% FBS, 24 h): spindle in shape
keratocan upregulation ([1]; presence of TGF-β1): upregulation disappeared
NC marker mRNA, p75NTR protein and p75NTR nuclear translocation ([1]; with TGFβ1): further upregulated without p75NTR nuclear translocation
staining of α-SMA [2]: retained their characteristic staining of α-SMA
